According to patent US11702419B2, “Heterocyclic compound and use thereof” (Takeda Pharmaceutical Company Limited, priority 2018, dated 2023):

Assays:
[1] = continuous intravenous administration; cited from earlier work
[2] = rodents; number of occurrence and depth; cited from earlier work
[3] = in vivo; cited from earlier work
[4] = target: T1, NMDA receptor composed of four subunits consisting of two sets of heterodimers of NR1 and NR2B (human GRIN1 and GRIN2B-expressing HEK293 cells) (Homo sapiens, UniProt Q13224); assay: NR2B Ca2+ influx assay; format: cell-based; details: 10 μM compound, glutamic acid/glycine-induced Ca2+ influx, FLIPR, read-out: inhibitory rate (10 μM compound concentration)
T1 construct: host or cells: HEK293 (tetracycline-inducible expression)
Method in brief: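 HEK293 cells expressing human GRIN1/GRIN2B were induced with tetracycline (diluted to 2 µg/mL) for 2 h, then Fluo-4AM loaded (2.5 µM) in pH 7.2 buffer with 1.8 mM CaCl2. Compound at 10 µM final was preincubated 15 min at room temperature, then challenged with buffer containing 30 µM glutamate/30 µM glycine. FLIPR fluorescence was read every 3 s for 5 min, with % inhibition from cumulative signal and agonist-free wells set as 100%.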

[5] = tested on: NMDA receptor containing the NR2B subunit (hippocampus); assay: [3H]MK-801 binding test in vivo; parameters: species or system Sprague Dawley rats; details: [3H]MK-801 binding inhibitory rate, rat hippocampus
Method: [^3H]MK-801 Binding Test In Vivo
In order to confirm “functional antagonistic action on an NMDA receptor containing the NR2B subunit in vivo” which the compound of the present invention has, binding test was performed using tritium-labeled form of MK-801 ((5R,10S)-5-methyl-10,11-dihydro-5H-5,10-epiminodibenzo[a,d][7]annulene) ([^3H]MK-801), which is a compound capable of binding to the opening site of the NMDA receptor.
The example compound (3 mg/kg/2 mL, 0.5% MC water) or vehicle ([…], 0.5% MC water) was orally administered (p.o.) to Sprague Dawley rats (body weight 180-260 g). After a certain time (around after time-to maximum blood concentration), [^3H]MK-801 (20 μCi/kg/mL, Muromachi Kikai) was intravenously administered. After 10 min, the rats were euthanized by decapitation, and subjected to craniotomy, and the hippocampus was collected. The collected hippocampus was homogenized in 30 volumes (30 mL per 1 g tissue) ice-cooled 20 mM Hepes (pH7.5, Hampton Research) using a homogenizer (T10 basic Ultra-Turrax) for 10 sec. […] The filter was washed four times with ice-cooled saline (5 mL, Otsuka Pharmaceutical), put into a scintillation vial, and then 10 mL of liquid scintillator A (FUJIFILM Wako Pure Chemical Corporation) was added thereto, and the residual radioactivity was counted using liquid scintillation counter (ALOKA LSC-6100). Separately, the residual radioactivity in 100 μL of the homogenate before the filtration was counted in the same way. The value of [the residual radioactivity in the filter/the residual radioactivity in the 100 μL of the homogenate] was calculated as a [^3H]MK-801 binding rate to the NMDA receptor expressing in each individual hippocampus tissue. […] The difference between the percentage of [^3H]MK-801 binding rate in the group orally administered with the example compound and that in the vehicle control group (100%) was analyzed as [^3H]MK-801 binding inhibitory rate by the example compound.

hERG channel = target: T2, hERG channel (Homo sapiens, UniProt Q12809); assay: hERG manual patch-clamp assay; format: cell-based; details: 10 μmol/L test solution; hERG peak tail current 3 to 5 min after application, HEK293 cells
T2 construct: Medicine
Method: hERG Manual Patch-Clamp Assay
In order to confirm “hERG channel inhibitory activity” which the compound of the present invention has, the hERG channel inhibitory activity was evaluated using human Ether-a-go-go-Related Gene (hERG)-expressing human embryonic kidney 293 (HEK293) cells.
hERG-stably expressing HEK293 cells were purchased from University of Wisconsin-Madison Dept. Medicine. The cells were cultured in a medium prepared by adding 10% FBS (fetal bovine serum, Life Technologies Corporation), sodium pyruvate (1 mmol/L; Life Technologies Corporation), MEM Non-Essential Amino Acid (1×; Life Technologies Corporation), 100 units/mL penicillin, 100 μg/mL streptomycin (Life Technologies Corporation) and 400 μg/mL G 418 (Geneticin, Sigma-Aldrich Co. LLC.) to Minimum Essential Medium (Sigma-Aldrich Co. LLC.) at 37° C., 5% CO2. The cultured cells were detached, suspended in a medium, and seeded on a cover glass, cultured, and used in a patch-clamp assay. […]
The hERG current passing through whole cell membranes under voltage-clamp was recorded by whole-cell patch-clamp method. […] During measurement, the extracellular fluid temperature in the chamber was set at 20 to 25° C., and the hERG current was measured using patch-clamp amplifier (Axopatch-200B, Molecular Devices, LLC). The obtained electrical signal was recorded on a computer via patch-clamp record and analysis software (pCLAMP 10, Molecular Devices, LLC). The absolute value of the hERG current value (peak tail current) was calculated based on the current value when depolarizing pulse at −50 mV, 110 msec was given, and the change (inhibitory rate) in the hERG current value (peak tail current) 3 to 5 min after the application of the 10 μmol/L test solution relative to before the application was calculated.

[6] = single intravenous administration; major depression and bipolar disorder; cited from earlier work
[7] = in vivo; cited from earlier work; remark: listed apart in the source

T1 sequence (Q13224 27-1484, other chains not shown): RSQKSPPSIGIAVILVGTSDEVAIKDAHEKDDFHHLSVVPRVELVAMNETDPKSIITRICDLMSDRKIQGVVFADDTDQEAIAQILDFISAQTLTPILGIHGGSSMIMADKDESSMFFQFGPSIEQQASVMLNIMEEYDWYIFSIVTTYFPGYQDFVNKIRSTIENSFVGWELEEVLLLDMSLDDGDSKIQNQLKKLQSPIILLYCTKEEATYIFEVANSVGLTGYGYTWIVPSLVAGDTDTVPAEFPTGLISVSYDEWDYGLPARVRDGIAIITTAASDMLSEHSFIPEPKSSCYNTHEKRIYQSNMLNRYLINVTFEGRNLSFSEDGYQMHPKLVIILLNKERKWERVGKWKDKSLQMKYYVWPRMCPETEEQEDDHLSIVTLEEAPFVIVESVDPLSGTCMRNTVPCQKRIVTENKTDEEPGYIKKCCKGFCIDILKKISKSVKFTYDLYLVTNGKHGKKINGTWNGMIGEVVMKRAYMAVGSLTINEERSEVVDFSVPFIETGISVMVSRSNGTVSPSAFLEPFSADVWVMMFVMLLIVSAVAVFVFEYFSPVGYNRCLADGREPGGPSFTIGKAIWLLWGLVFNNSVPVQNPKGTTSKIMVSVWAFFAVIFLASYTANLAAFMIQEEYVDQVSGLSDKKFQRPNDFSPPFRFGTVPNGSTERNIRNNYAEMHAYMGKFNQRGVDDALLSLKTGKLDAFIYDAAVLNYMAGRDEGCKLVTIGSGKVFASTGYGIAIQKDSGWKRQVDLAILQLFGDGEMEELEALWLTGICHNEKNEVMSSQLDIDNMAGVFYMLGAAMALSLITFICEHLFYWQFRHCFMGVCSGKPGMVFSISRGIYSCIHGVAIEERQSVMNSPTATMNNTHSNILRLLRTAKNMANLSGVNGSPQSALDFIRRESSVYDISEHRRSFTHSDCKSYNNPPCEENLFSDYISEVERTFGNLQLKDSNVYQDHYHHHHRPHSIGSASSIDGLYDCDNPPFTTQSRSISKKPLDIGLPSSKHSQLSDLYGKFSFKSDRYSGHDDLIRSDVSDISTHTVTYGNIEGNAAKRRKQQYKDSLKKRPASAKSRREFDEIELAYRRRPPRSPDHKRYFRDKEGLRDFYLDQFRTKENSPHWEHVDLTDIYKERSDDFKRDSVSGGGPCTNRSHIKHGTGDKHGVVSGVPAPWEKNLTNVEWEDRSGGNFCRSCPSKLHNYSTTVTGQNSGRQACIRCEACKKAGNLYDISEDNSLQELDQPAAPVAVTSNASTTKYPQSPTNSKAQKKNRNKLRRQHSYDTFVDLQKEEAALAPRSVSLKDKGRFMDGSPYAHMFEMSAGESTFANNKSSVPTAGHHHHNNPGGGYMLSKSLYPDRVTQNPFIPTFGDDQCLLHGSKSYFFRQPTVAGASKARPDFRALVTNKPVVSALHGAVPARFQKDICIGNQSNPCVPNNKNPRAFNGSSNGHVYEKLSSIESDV
T2 sequence (Q12809 whole entry): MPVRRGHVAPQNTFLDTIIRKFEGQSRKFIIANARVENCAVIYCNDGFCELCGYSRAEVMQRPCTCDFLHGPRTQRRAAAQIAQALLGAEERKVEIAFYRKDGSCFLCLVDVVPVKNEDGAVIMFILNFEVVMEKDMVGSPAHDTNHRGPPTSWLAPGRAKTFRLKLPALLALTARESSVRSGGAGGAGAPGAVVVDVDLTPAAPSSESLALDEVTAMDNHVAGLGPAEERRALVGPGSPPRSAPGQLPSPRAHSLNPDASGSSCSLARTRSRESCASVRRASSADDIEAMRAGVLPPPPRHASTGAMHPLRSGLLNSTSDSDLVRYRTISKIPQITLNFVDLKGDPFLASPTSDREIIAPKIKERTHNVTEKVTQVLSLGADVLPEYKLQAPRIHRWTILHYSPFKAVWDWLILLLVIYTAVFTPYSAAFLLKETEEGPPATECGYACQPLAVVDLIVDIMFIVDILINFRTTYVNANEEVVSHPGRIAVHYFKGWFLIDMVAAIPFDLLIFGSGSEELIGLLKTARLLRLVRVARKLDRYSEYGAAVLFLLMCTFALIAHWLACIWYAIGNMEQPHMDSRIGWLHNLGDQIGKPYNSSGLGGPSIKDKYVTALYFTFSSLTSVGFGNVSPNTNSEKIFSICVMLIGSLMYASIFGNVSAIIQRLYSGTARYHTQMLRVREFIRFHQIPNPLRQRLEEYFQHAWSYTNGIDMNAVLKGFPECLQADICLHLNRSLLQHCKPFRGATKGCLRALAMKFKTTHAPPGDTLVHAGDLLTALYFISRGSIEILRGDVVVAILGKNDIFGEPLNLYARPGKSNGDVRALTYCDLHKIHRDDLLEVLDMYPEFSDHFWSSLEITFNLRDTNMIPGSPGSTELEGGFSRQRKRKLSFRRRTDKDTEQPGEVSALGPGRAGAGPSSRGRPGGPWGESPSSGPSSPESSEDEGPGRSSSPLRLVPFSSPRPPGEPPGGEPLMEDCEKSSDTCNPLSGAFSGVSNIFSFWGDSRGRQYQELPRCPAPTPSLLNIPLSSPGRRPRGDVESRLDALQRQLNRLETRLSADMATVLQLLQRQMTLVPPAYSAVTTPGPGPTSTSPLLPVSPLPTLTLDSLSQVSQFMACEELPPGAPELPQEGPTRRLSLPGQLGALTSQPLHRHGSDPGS

Structure (SMILES) | inhibition at 10 µM [4] | inhibitory rate (3 mg/kg, p.o.) [5] | inhibitory rate (10 μM compound concentration) (hERG channel) | also measured
C[C@@H]([C@@H](O)c1ccc(O)cc1)N1CCC(O)(c2ccccc2)CC1 [CP-101,606] | – | – | – | effect on treatment resistant-depression symptom [1]: significantly improves treatment resistant-depression symptom; effect on cortical spreading depression [2]: suppress the number of occurrence and the depth of cortical spreading depression
CC(C(O)c1ccc(O)cc1)N1CCC(Cc2ccccc2)CC1 (stereo not drawn) [ifenprodil] | – | – | – | effect on pain threshold [3]: increase in pain threshold
C[C@@H](CN1CCC(Cc2ccccc2)CC1)[C@@H](O)c1ccc(O)cc1 [Ro25-6981] | – | – | – | effect on cortical spreading depression [2]: suppress the number of occurrence and the depth of cortical spreading depression
Cn1ccn2ncc(CNC(=O)c3cnc(OC(F)F)c(F)c3)c12 [Example 58, 6-(difluoromethoxy)-5-fluoro-N-((1-methyl-1H-imidazo[1,2-b]pyrazol-7-yl)methyl)nicotinamide] | 97% | 27% | 13.6 | –
O=C(NCc1cnn2ncccc12)c1cnc(OC(F)F)c(F)c1 [Example 6, 6-(difluoromethoxy)-5-fluoro-N-(pyrazolo[1,5-b]pyridazin-3-ylmethyl)nicotinamide] | 97% | 33% | 16.5 | –
O=C(NCc1nnn2ccccc12)c1ccc(OC(F)(F)F)c(F)c1 [Example 13, 3-fluoro-N-([1,2,3]triazolo[1,5-a]pyridin-3-ylmethyl)-4-(trifluoromethoxy)benzamide] | 96% | 23% | 33.2 | –
CNC1(c2ccccc2Cl)CCCCC1=O (stereo not drawn) [ketamine] | – | – | – | effect on depression symptom [6]: improves depression symptom accompanying major depression and bipolar disorder rapidly and in a sustained manner
CC12CC3CC(C)(C1)CC(N)(C3)C2 [memantine] | – | – | – | effect on behavioral and psychological symptoms of dementia [7]: partially improves behavioral and psychological symptoms of dementia
